Results from ChEMBL document CHEMBL5226389, “Isolation of the Anti-Inflammatory Agent Myceliostatin from a Methionine-Enriched Culture of Myceliophthora thermophila ATCC 42464” (J Nat Prod, 2023).
Active and inactive are the calls of the source. No cut-off for these calls is given here.

Columns and labels:
RAW264.7 [1] = assay: Cytotoxicity against mouse RAW264.7 cells assessed as reduction in cell viability at 3 microg/ml incubated for 24 hrs by MTT assay; assay type: toxicity, cell-based; conditions: raw264.7, 24 h, dose 3 µg/ml
RAW264.7 [2] = assay: Inhibition of LPS-induced NO production in mouse RAW264.7 cells at 0.3 to 3 microg/ml incubated for 24 hrs by griess reagent based microplate reader analysis; assay type: functional, cell-based; conditions: dose 0.3-3 µg/ml
RAW264.7 [3] = assay: Antiinflammatory activity in LPS-stimulated mouse RAW264.7 cells assessed as inhibition of IL-6 level incubated for 24 hrs by RT-PCR analysis; assay type: functional, cell-based
RAW264.7 [4] = assay: Antiinflammatory activity in LPS-stimulated mouse RAW264.7 cells assessed as inhibition of IL-1beta level incubated for 24 hrs by RT-PCR analysis; assay type: functional, cell-based
RAW264.7 [5] = assay: Cytotoxicity against mouse RAW264.7 cells assessed as reduction in cell viability at 10 microg/ml incubated for 4 hrs by MTT assay; assay type: toxicity, cell-based; conditions: raw264.7, 4 h, dose 10 µg/ml
RAW264.7 [6] = assay: Antiinflammatory activity in mouse RAW264.7 cells assessed as inhibition of LPS-induced NFkB p65 activation at 3 to 10 microg/ml for 2 hrs followed by LPS stimulation for 2 hrs; assay type: functional, cell-based; conditions: dose 3-10 µg/ml, time 4.0 hrs
RAW264.7 [7] = assay: Inhibition of LPS-induced ROS production in mouse RAW264.7 cells at 3 to 10 microg/ml preincubated for 1 hr followed by LPS stimulation and measured after 24 hrs by DCFH-DA staining based fluorescence analysis; assay type: functional, cell-based; conditions: dose 3-10 µg/ml, time 25.0 hrs

C/C=C(\C)[C@H]1C(C)=C[C@@]2(C)C[C@@H](C)CC[C@@H]2[C@H]1C(=O)C1=C(SC)[C@@](O)(CC(C)C)NC1=O
Activity (RAW264.7 [1]): Non-Toxic | inhibition (RAW264.7 [2]): Active | Activity (RAW264.7 [3]): Active | Activity (RAW264.7 [4]): Active | Activity (RAW264.7 [5]): Non-Toxic | Activity (RAW264.7 [6]): Active | inhibition (RAW264.7 [7]): Active

C/C=C(\C)[C@H]1C(C)=C[C@@]2(C)C[C@@H](C)CC[C@@H]2[C@H]1C(=O)C1=C(SC)[C@](O)(CC(C)C)NC1=O
Activity (RAW264.7 [1]): Non-Toxic | inhibition (RAW264.7 [2]): Active
